Converted amounts (≈) assume the structure as drawn.
Assays:
Escherichia coli [1] = test: Antibacterial activity against Escherichia coli EPI300 harboring plasmid GEM-T expressing tet(40) gene after 16 hrs; format: functional, organism-based; conditions: EPI300, 16 h
Escherichia coli [2] = test: Antibacterial activity against Escherichia coli EPI300 expressing tet(40) gene assessed as bacterial growth at 80 ug/ml after 18 hrs in presence of 2.5 ug/ml efflux pump inhibitor […]
Escherichia coli [3] = test: Antibacterial activity against Escherichia coli EPI300 expressing tet(W) gene assessed as bacterial growth at 60 ug/ml after 18 hrs in presence of 2.5 ug/ml efflux pump inhibitor CCCP
Escherichia coli [4] = test: Antibacterial activity against Escherichia coli EPI300 expressing tet(40) gene assessed as bacterial growth at 60 ug/ml after 18 hrs in presence of 2.5 ug/ml efflux pump inhibitor CCCP
Escherichia coli [5] = test: Antibacterial activity against Escherichia coli EPI300 expressing tet(W) gene assessed as inhibition of bacterial growth at 40 ug/ml after 18 hrs in presence of 2.5 ug/ml efflux pump inhibitor CCCP; values are per cent of control
Escherichia coli [6] = test: Antibacterial activity against Escherichia coli EPI300 expressing tet(W) gene assessed as inhibition of bacterial growth at 80 ug/ml after 18 hrs in presence of 2.5 ug/ml efflux pump inhibitor CCCP; values are per cent of control
Escherichia coli [7] = test: Antibacterial activity against Escherichia coli EPI300 expressing tet(40) gene assessed as inhibition of bacterial growth at 40 ug/ml after 18 hrs in presence of 2.5 ug/ml efflux pump inhibitor CCCP; values are per cent of control

For CN(C)[C@@H]1C(O)=C(C(N)=O)C(=O)[C@@]2(O)C(O)=C3C(=O)c4c(O)cccc4[C@@](C)(O)[C@H]3C[C@@H]12 [TETRACYCLINE], the IC50 (Escherichia coli [1]) was 60 µg/mL (≈ 135 µM), the “growth, % of control” value (Escherichia coli [2]) was 16.5% and the “growth, % of control” value (Escherichia coli [3]) was 99.2%. The “growth, % of control” value (Escherichia coli [4]) was 53.4%, the “growth, % of control” value (Escherichia coli [5]) was 96.4% and the “growth, % of control” value (Escherichia coli [6]) was 75.4%. The “growth, % of control” value (Escherichia coli [7]) was 56.5%.

Source: ChEMBL document CHEMBL1275549, “A new tetracycline efflux gene, tet(40), is located in tandem with tet(O/32/O) in a human gut firmicute bacterium and in metagenomic library clones” (Antimicrob Agents Chemother, 2008)
